We go through one compound from article PMC9848421, “Increased brain uptake of pterostilbene loaded folate modified micellar delivery system” (Drug Delivery, 2022).

The structures appear in SMILES notation.

The term IC50 denotes the concentration at which inhibition is half-maximal. Lower therefore signals greater potency in that assay. Broadly, the Cmax is the highest concentration seen after dosing. Broadly, the Tmax is the time from dosing to the highest level. Usually half-life stands for how long it takes for the measured level to halve. The low end stands for rapid decline, the high end for slow decline.

Series [1] can be described thus: In vitro drug release by dialysis method. The class given is physicochemical. Conditions: PBS pH 7.4 containing 0.3% Tween 80. As to the method:
With free Pt acetone solution as control, in vitro release of Pt from F-Pt/M formulation was studied by the dialysis method (Khan et al., [2020]; Rubab et al., [2021]; Yang et al., [2021]). Briefly, 1 mL of samples, equivalent to 0.8 mg drug, were filled into dialysis bags (molecular weight cutoff: 3500 Da) and dialyzed against 1,000 mL of phosphate buffer solution of pH values 7.4 (containing 0.3% Tween 80) to mimic drug release in normal tissues/blood. At the desired time intervals, 1 mL of release medium was withdrawn and replaced with 1 mL of fresh medium. The amount of released Pt was measured by spectrophotometer (Thermo Scientific Inc., Finland) with excitation wavelength at 330 nm and emission wavelength at 374 nm.
In order to understand the kinetic model of Pt release from F-Pt/M, zero-order, first-order and Higuchi models were fitted, and the highest adjusted R^2 value was used as the criterion for model selection.

The test system of a further series is A172 cells. Description: In vitro cytotoxicity assay (CCK-8). As to conditions: Homo sapiens, A 172, 48 h incubation. In kind it is cell-based. Here is the method:
Human glioblastoma A172 cells (Nanjing KeyGen Biotech Co., Ltd., Nanjing, China) which overexpress folate receptor (Weitman et al., [1992]) were used. Cells were routinely cultured in DMEM medium (Invitrogen, Grand Island, NY, USA) supplemented with 10% fetal bovine serum (Gibco Life Science, Grand Island, NY, USA) and 1% streptomycin/penicillin in a humidified atmosphere of 5% CO2 at 37 °C. Cell passages were carried out according to the manufacturer’s instructions.
To evaluate the inhibitory effects of Pt in various formulations on A172 cells, cytotoxicity assay was carried out with CCK-8 kits. Cells were seeded into 96-well plates at a density of 5,000 cells per well, followed by incubation for 24 h. Cells were treated with free Pt solution (free Pt), Pt loaded micelles (Pt/M), folate modified Pt loaded micelles (F-Pt/M) and blank micelles (BM) at equivalent drug concentrations ranging from 5 μM to 100 μM and further incubated for 48 h. […] After 2 h of incubation at 37 °C, the absorbance intensity was measured by a microplate reader (Varioskan LUX; Thermo Scientific Inc., Vantaa, Finland) at 450 nm. Cell viability was calculated by the ratio between the fluorescence absorbance of the cells treated with various Pt formulations (or blank micelles) and that of the cells incubated with the culture medium only. The IC50 values were calculated by using SPSS 22.0 (IBM Corp., Armonk, NY).

In the next series the test system is red blood cells (RBCs). The series is described as follows: In vitro hemolysis assay. As to conditions: 37 °C, 1 h. The class given is cell-based, SD rats. Here is the method:
The hemocompatibility of F-Pt/M was investigated by hemolysis assay (Valenzuela-Oses et al., [2017]). Fresh SD rats blood was diluted by physiological saline, and red blood cells (RBCs) were collected by centrifugation at 1,200 rpm for 5 min. Following carefully washing and diluting, RBC suspension in normal saline (v/v, 2%) was prepared for hemolysis study. Pt loaded F-Pt/M and free Pt at different drug concentrations were added and mixed by vortex. Then, the samples were incubated at 37 °C for 1 h and after that were centrifuged at 3,000 rpm for 10 min. The supernatant was collected and spectrophotometrically measured on a microplate plate reader (Varioskan LUX, Thermo Scientific Inc., Vantaa, Finland) at 540 nm. Double distilled water and normal saline were employed as positive and negative control, respectively. The hemolysis ratio (HR) of RBCs was calculated using the following equation: (4) HR (%) = (As– A0)/(A100– A0) × 100
Where, As is the absorbance of sample, A0 is the absorbance of negative control and A100 is the absorbance of positive control.

A short description of series [2]: Brain targeting and brain distribution study in rats. The class given is in vivo, SD rats. As to conditions: single i.v. 3 mg/kg; for Cmax / Tmax / half-life: male, SD, rat, iv. Here is the method: Male SD rats weighing 200–250 g (Experimental Animal Center of Dalian Medical University, China) were maintained in standard conditions on a 14 h light/10 h dark cycle provided with food and water ad libitum prior to experimental procedures. All animal experimental protocols were conducted with an approval by the Institutional Animal Care and Use Committee at Dalian Medical University, Dalian, China (Ethics Committee approval number: SCXK 2018-0003) as well as in accordance with the recommendations and policies of the National Institutes of Health (NIH) guide for the care and use of laboratory animals (NIH Publications No. 8023, revised 1978).
Rats were randomly divided into two groups of 24 animals each. Each group received either freshly prepared control free Pt solution in DMSO (10%) in saline solution or formulation of F-Pt/M at a dose equivalent to 3 mg/kg of drug intravenously through lateral tail vein. From each group, three rats were sacrificed at intervals of 5, 15, 30, 45, 60, 90, 120 and180 min post dose. At each time point, blood sample was withdrawn and centrifuged at 3,500 rpm at 4 °C for 10 min. At the same time, the brain sample was harvested, weighed, and homogenized in PBS after cardiac perfusion with 0.9% normal saline solution. Samples were stored at −80 °C until analysis.
Pt from both brain and plasma samples was extracted by liquid-liquid extraction method. Briefly, 20 µL of internal standard working solution (resveratrol, 250 ng/ml) was added to 200 µL aliquot of plasma or brain sample. After 30 seconds of vortexing, 1 mL of extraction solvent, methyl tertiary butyl ether (MTBE) was added. Afterwards, the sample was mixed for 1 min plus centrifugation at 1,000 rpm for 5 min, the supernatant organic layer was carefully transferred and dried using nitrogen gas with gentle heat at 40 °C. The residue was reconstituted with 400 µL of mobile phase and centrifuged at 12,000 rpm for 10 min. The supernatant was transferred to an auto-sampler vial and 10 µL was then injected into the LC-MS/MS system for analysis. An LC-MS/MS analysis method reported by Ferrer (Ferrer et al., [2005]) was employed for the determination of Pt concentration.
Pharmacokinetic parameters, such as Cmax (maximum drug concentration), Tmax (the time to Cmax) and AUC0-t (area under plasma concentration-time curve), were calculated by DAS 2.0 (Drug and Statistics ver 2.0, China). To examine the blood-brain barrier penetration (P) of Pt, the following formula was employed (Yang et al., [2021]): (5) P=AUCbrain/AUCplasma
For brain targeting evaluation, DTI (drug targeting index) was determined using the following equation (Katekar et al., [2020]): (6) DTI = (AUCbrain/AUCplasma)test/(AUCbrain/AUCplasma)control

Details of series [3]: method as in Liu et al., 2020. As to conditions: crude Pt; ref Liu et al., 2020; cited from earlier work.

As for `COc1cc(/C=C/c2ccc(O)cc2)cc(OC)c1` [free Pt, 3,5-dimethoxy-4′-hydroxy-trans-stilbene], the “time over which the drug was released” value in series [1] is listed as at most 5 h. This compound gave an IC50 with A172 cells of 24.4 µM. Besides, the “HR (hemolysis ratio)” value with red blood cells (RBCs) (high concentration of 0.5 mg/mL) came to 11.23%. Also, the “HR (hemolysis ratio)” value in the series on red blood cells (RBCs) (low concentration of 0.17 mg/mL) came out at 6.46%. In the series with red blood cells (RBCs) (medium concentration of 0.33 mg/mL), the “HR (hemolysis ratio)” value is 10.39%. In series [2] (brain), the AUC0-t came to 4369.66 ± 289.88 µg·min/L, the Cmax amounted to 0.0781 ± 0.0139 µg/mL, the Tmax is 35 min and the half-life amounted to 22.4 ± 2.84 min. In addition, in series [2] (plasma), the Cmax was 0.221 ± 0.0215 µg/mL, the Tmax is 5 min, the half-life is 114 ± 29.2 min and the AUC0-t turned out to be 10107.80 ± 976.65 µg·min/L. In addition, the solubility in water result in series [3] is recorded as “about 21 µg/mL”.
